According to PubChem BioAssay AID2305 (GlaxoSmithKline (GSK), 2010):

System: P. falciparum 3D7 growth, pLDH absorbance
Assay: blood-stage malaria parasite growth potency – strain 3D7, dose response (AID 2305)

Structure (SMILES)	IC50
COc1cccc2c(NCc3ccccc3)nc(NCCCN3CCCCC3C)nc12 (stereo not given)	910 nM
CCC(=O)Nc1nnc(Cc2ccc(OC)c(OC)c2)s1	910 nM
O=S(=O)(/C=C/c1ccccc1)N(Cc1ccc(-c2ccc(CNCCOc3ccccc3)cc2)cc1)CC1CCCCN1 (stereo not given)	740 nM
Cc1c(C(=O)NCc2ccncc2)sc2nc(-c3cccc([N+](=O)[O-])c3)cn12	910 nM
COc1ccccc1NC(=S)N/N=C/c1ccc(O)cc1O	1020 nM
O=C(/C=C/c1ccc(Cl)c(Cl)c1)NCCCCCN1CC[C@H](c2c[nH]c3ccccc23)[C@@H](O)C1	800 nM
COc1cc(NC(=O)c2sc(-c3ccc(Cl)cc3)cc2Cl)ccc1OCCN1CCCC1	980 nM
COc1c(CNCCCCCCNCc2cc(Cl)c3ccccc3c2OC)cc(Cl)c2ccccc12	940 nM
COc1ccc(NC(=O)/C=C/c2ccc(-c3ccc(-c4noc(C)n4)cc3)cc2)cc1OCCN(C)C	1370 nM
Nc1nccc2ccc(-c3ccncc3)cc12	250 nM
COc1c(C2CCN(CCN3CCC(NC(=O)c4ccc(-c5ccc(C(F)(F)F)cc5)cc4)CC3)CC2)ccc2c1CCCC2	1360 nM
CNCCc1c(O)ccc2ccccc12	800 nM
Cc1cccc2[nH]c(-c3cccc(-c4ccc(NC(=O)C5CCN(C)CC5)cc4)c3)nc12	830 nM
CC(=O)Nc1ccc(C(=O)Nc2cccc(-c3ccc(-c4nc5ccccc5[nH]4)cc3)c2)cn1	210 nM
O=C(NCCc1ccc(Cl)c(Cl)c1)[C@@H]1CCCN1C(=O)c1ccc(O)c(-c2cccc(C(F)(F)F)c2)c1	820 nM
CN(C)c1cc2c(Nc3ccc4nc(Cc5ccccc5)[nH]c4c3)ncnc2cn1	1140 nM
O=C1CCCN1CCCNCc1ccc(-c2cccc(-c3nc4ccc(F)cc4[nH]3)c2)cc1	660 nM
COc1ccc2nccc(NN=Cc3ccc(N(C)C)cc3)c2c1	800 nM
CN(C)CCN(Cc1ccccc1-c1ccc(CNCCc2ccccc2)cc1)C(=O)NC1CCCCC1	910 nM
CC(C)Oc1ccc(N2CCN(CCCCNC(=O)c3ccc(NC(=O)c4ccc(Cl)cc4)cc3)CC2)c(OC(C)C)c1	510 nM
Clc1ccccc1C=NNc1ccnc2ccccc12	850 nM
O=C(Nc1cccc(CN2CCCN(Cc3ccc4c(c3)OCO4)CC2)c1)c1ccc2ccccc2c1	1050 nM
O=C(/C=C/c1ccc(Cl)c(Cl)c1)NCCCCCN1CCC(CCNC(=O)Cc2ccc(Cl)cc2)CC1	1160 nM
CCN(CC)CCN(Cc1ccc(-c2ccc(C(F)(F)F)cc2)cc1)C(=O)Cn1c(CCC2CCCCC2)nc(=O)c2ccccc21	1390 nM

Structure (SMILES)	IC50
CCCc1cc(Cc2cnc(N)nc2N)cc(CCC)c1OCCCCCC(=O)OCC	50 nM
O=C(NCC1CC1)C1CCN(C(c2ccccc2)c2cc(F)cc(F)c2)CC1 (stereo not given)	380 nM
O=C(/C=C/c1ccc(Cl)c(Cl)c1)NCCCCN1CCCN(C(=O)Nc2ccc(Cl)c(Cl)c2)CC1	860 nM
COc1ccc(NC(=O)NC2CCN(CCCCCNC(=O)/C=C/c3ccc(Cl)c(Cl)c3)C2)c(OC)c1 (stereo not given)	820 nM
NC(=O)c1ccccc1OCC(=O)Nc1cccc(-c2ccc(-c3nc4ccccc4[nH]3)cc2)c1	790 nM
O=C(Nc1cccc(-c2cccc(-c3nc4ccccc4[nH]3)c2)c1)Nc1ccc(Cl)c(Cl)c1	130 nM
O=C(C=Cc1ccc(Cl)c(Cl)c1)NCCCCCN1CCC(CCCNC(=O)[C@@H]2C[C@H]2c2ccccc2)CC1	770 nM
CN1CCc2cc(CN3C[C@]4(C)C[C@H]3CC(C)(C)C4)c(O)cc2C(c2ccccc2)C1 (stereo not given in full)	720 nM
N#CC(c1ccc(Cl)cc1)c1ccc2c(C(F)(F)F)cc(C(F)(F)F)nc2n1 (stereo not given)	1010 nM
O=C(Cc1ccc(NC(=O)c2ccc(O)c(-c3ccc(Cl)c(Cl)c3)c2)cc1)NCCN1CCCCC1	840 nM
O=C(NCCc1ccccc1)N(Cc1cccc(-c2ccc(CNC3CCCC3)cc2)c1)C1CCN(Cc2ccccc2)CC1	400 nM
O=C(CN1CCN(C(=O)c2ccco2)CC1)Nc1ccccc1Br	560 nM
CC(C)(C)c1cc(CN2CCN(Cc3ccccc3)CC2)cc(C(C)(C)C)c1O	770 nM
CC1CN(c2ccc(C(=O)NCC3CC3)cc2NC(=O)OCc2ccccc2)CC(C)O1 (stereo not given)	1300 nM
Cn1nc(-c2cccc(CNCc3ccccc3)c2)c2cnc(NC3CCCC3)nc21	1260 nM
Cc1[nH]c(C)c(-c2ccc(-c3ccc(C(F)(F)F)cc3C(F)(F)F)nc2)c(=O)c1Br	190 nM
N#Cc1cccc(C(=O)NC2CCN(CCCCCNC(=O)/C=C/c3ccc(Cl)c(Cl)c3)CC2)c1	880 nM
Cc1nn(-c2cccc(Cl)c2)c2c1C(C(=O)c1ccc3c(c1)OCO3)CC(=O)N2 (stereo not given)	370 nM
NOCCCCOc1ccc(Br)cc1	190 nM
O=[N+]([O-])c1ccc(C2=NN(S(=O)(=O)c3c(Cl)cc(Cl)cc3Cl)CCCC2)cc1	130 nM
CNC(=O)c1c(NC(=O)c2cccs2)sc2c1CCCC2	820 nM
Cc1noc(C)c1-c1cccc(C(=O)NC2CCN(CCNC(=O)C(c3ccccc3)c3ccccc3)CC2)c1	1220 nM
O=C(Nc1cccc(CN2CCCN(Cc3ncc[nH]3)CC2)c1)c1ccc(-c2ccccc2)cc1	650 nM
Cc1cc(N[C@@H](Cc2ccccc2)C(=O)Nc2ccccc2)nc(NCCc2ccccn2)n1	870 nM

Structure (SMILES)	IC50
COc1ccccc1CNc1ccnc(NCCc2cccc(C(F)(F)F)c2)n1	930 nM
CCCCCCCCc1[nH]c(C)c(Br)c(=O)c1Br	180 nM
COC(=O)c1ccc(CC(C)NCC(O)c2cccc(Br)c2)cc1 (stereo not given)	690 nM
Cc1cc(N[C@@H](Cc2ccccc2)C(=O)NC2CCCC2)nc(NCCCOC(C)C)n1	1480 nM
CC(C)NC(=O)Cn1cc(C2CCN(CC3CCN(C(=O)/C=C/c4ccc(Cl)c(Cl)c4)CC3)CC2)c2ccccc21	1030 nM
Cc1ccc(C2=NNC3(S2)C(=O)Nc2ccc(C)cc23)cc1 (stereo not given)	1020 nM
COc1cc(NC(=O)c2sc(-c3ccc(Cl)cc3)cc2NC(=O)c2cccc(N(C)C)c2)ccc1OCCN1CCCC1	710 nM
CCCCOP(=O)(COc1ccc(CCN(CC(O)COc2cccc3[nH]c4ccccc4c23)CC(O)COc2cccc3[nH]c4ccccc4c23)cc1)C1CCCCC1 (stereo not given)	940 nM
O=C(NCCCCN1CCN(c2cccc3ccccc23)CC1)c1ccc(NC(=O)c2ccc(Cl)cc2)cc1	360 nM
COc1ccc(-c2cc(C(=O)N[C@@H](CC3CCCCC3)C(=O)NCCN3CCCC3)ccc2O)cc1	870 nM
CC(C)COc1ccc(Cl)cc1Cc1nc(-c2nc3c(CN4CCN(C)CC4)cccc3[nH]2)cs1	1330 nM
O=C(/C=C/c1ccc(Cl)c(Cl)c1)NCC1CCC(N2CCC(c3c[nH]c4ccccc34)CC2)CC1 (stereo not given)	170 nM
Fc1ccc2nc(-c3ccc(-c4ccc(CNCCc5ccncc5)cc4)s3)[nH]c2c1	140 nM
Cc1nc(C)c(-c2ccc(Oc3ccc(OC(F)(F)F)cc3)cc2)c(OC(=O)c2ccc(CN(C)C)cc2)c1Cl	140 nM
Cc1[nH]c(C)c(-c2ccc(-c3cccc(C(F)(F)F)c3)nc2)c(=O)c1Br	140 nM
CC(=O)Nc1ccc(Nc2cc(C)nc(Nc3ccc(NC(C)=O)cc3)n2)cc1	890 nM
COCCNCc1ccc(-c2ccc3c(Nc4ccc(F)cc4Cl)ccnc3c2)o1	210 nM
COc1ccc(CNCc2ccc(-c3ccc(-c4nc5c(C)cccc5[nH]4)cc3)cc2)cc1	340 nM
N#Cc1ccc(CNCCCCCCCNCc2ccc(-c3ccccc3)cc2)cc1	970 nM
c1ccc(-c2cccnn2)cc1	910 nM
O=C(Nc1ccc(C(F)(F)F)cc1)NC1CCN(c2ccnc3ccccc23)C1 (stereo not given)	90 nM
CCN(CC)CCCNc1nccc(N(C)c2ccc(NC(=O)Nc3cc(C(F)(F)F)ccc3F)cc2)n1	1050 nM
